Where two headings read alike, the source gives them in different places.
What was measured:
ATM = ATM (Homo sapiens (Human), UniProt Q13315); experiment: biochemical; assay type: biochemical; details: read-out: ATM IC50
Excerpt: Assay a): ATM Biochemical Potency
Data was collected by Caliper.

ATR = ATR (Homo sapiens (Human), UniProt Q13535); experiment: ATR biochemical potency assay (Assay b)
Description: Assay b): ATR Biochemical Potency
The plate was incubated at room temperature for 10 minutes. 2× peptide solutions were prepared with FAM-labeled peptide and ATP in the 1× kinase base buffer. […] 40 μl of stop buffer was added to stop reaction. Data were collected by Caliper.

[1] = system: phosp-KAP1 in MCF-7 cells; experiment: phosp-KAP1 MCF-7 cellular potency assay (Assay f); assay type: cell-based; details: Homo sapiens, MCF7; MCF-7 cells, etoposide; read-out: Etoposide MCF-7 cellular IC50
Description: Assay f): phosp-KAP1 MCF-7 Cellular Potency
MCF-7 cells were seeded to a 384-well cell-culture plate, 25 μl/well which were incubated at 37° C. and 5% CO2 for 24 hr. Test compounds were added to the 384-well plates. Etoposide at final concentration of 100 μM was then added to each well except Vehicle control wells, which were incubated at 37° C. and 5% CO2 for 1 hour. After medium removal, cells were fixed by the addition of 25 μl/well of 8% paraformaldehyde in PBSA and incubated for 20 minutes at room temperature. After the plates were rinsed 3 times with PBSA, 50 ul permeabilization buffer (0.1% Triton X-100 in PBS) was added and the plates were incubated for 20 minutes at room temperature. After the plates were rinsed with PBSA, block the cells by adding 50 μl of Odyssey Blocking Buffer in 384-well plate and then incubate for 1.5 hours at room temperature. Remove blocking buffer by Plate washer (BioTek ELx405 select CW). […] The plates were rinsed 5 times with PBST (0.1% Tween-20 in PBS).
• 1) Fluorescence intensity (FI) was detected for each well. • 2) % inhibition is calculated as follow:
[formula] • FIpositive: The average FI for the positive controls across the plate. • FIvehicle: The average FI for negative controls across the plate. • 3) Calculate IC50 and Plot effect-dose curve of compounds: • Calculate IC50 by fitting % inhibition values and log of compound concentrations to nonlinear regression (dose response−variable slope) with Graphpad prism 6.0.
Y=Bottom+(Top−Bottom)/(1+10^((Log IC50−X)*HillSlope)) • X: log of compounds concentration; Y: % inhibition

[2] = molecular target: ATM (phospho-ATM Ser1981) in SN38 treated HT-29 cells (Homo sapiens (Human), UniProt Q13315); experiment: cell-based
Description: Assay g): ATM SN-38 HT-29 Cellular Potency
SN38 causes single strand DNA breaks (SSBs) which are converted to double strand breaks (DSBs) during replication. ATM plays role of repairing DSBs. Inhibition of ATM was evaluated in SN38 treated HT-29 cells (ATCC, Cat #HTB-38) by high-Content Imaging System
The graphical views were then generated using Prism 7.0 (Graphpad).

mTOR = mTOR (Homo sapiens (Human), UniProt P42345); experiment: mTOR biochemical potency assay (Assay d)
Description: Assay d): mTOR Biochemical Potency
Solution of mTOR enzymes (Millipore, Cat. No. 14-770) was prepared in 1× kinase buffer at 4-fold of the final concentration (final concentration: 6 nM) in the assay. 2.5 μl of kinase solution was added to each well of the 384-well assay plate, which contains 2.5 μl of compounds with serially diluted concentration. 2× substrate solution was prepared with ULight-4E-BP1 (Thr37/46) Peptide (PE, Cat. No. TRF0128-M) and ATP in 1× kinase reaction buffer at 2-fold of the final concentration of each reagent in the assay. 5 μl of substrate solution was added to each well of the assay plate to start reaction. The assay plate was incubated at room temperature for 30 minutes. Detection solution of kinase quench buffer (EDTA) and Eu-anti-phospho-4E-BP1 antibody (Thr37/46) (PE, Cat. No. TRF0216-M) were prepared at 2-fold the desired final concentrations of each reagent in Lance detection buffer. 10 μl of detection solution buffer was added to each well of the assay plate.

PI3Kα (p110α/p85a) = PI3Kα (p110α/p85a) (Homo sapiens (Human), UniProt P42336); experiment: PI3K biochemical potency assay (Assay c), PI3Kα
Sequence of PI3Kα (p110α/p85a) (P42336 whole entry, looked up): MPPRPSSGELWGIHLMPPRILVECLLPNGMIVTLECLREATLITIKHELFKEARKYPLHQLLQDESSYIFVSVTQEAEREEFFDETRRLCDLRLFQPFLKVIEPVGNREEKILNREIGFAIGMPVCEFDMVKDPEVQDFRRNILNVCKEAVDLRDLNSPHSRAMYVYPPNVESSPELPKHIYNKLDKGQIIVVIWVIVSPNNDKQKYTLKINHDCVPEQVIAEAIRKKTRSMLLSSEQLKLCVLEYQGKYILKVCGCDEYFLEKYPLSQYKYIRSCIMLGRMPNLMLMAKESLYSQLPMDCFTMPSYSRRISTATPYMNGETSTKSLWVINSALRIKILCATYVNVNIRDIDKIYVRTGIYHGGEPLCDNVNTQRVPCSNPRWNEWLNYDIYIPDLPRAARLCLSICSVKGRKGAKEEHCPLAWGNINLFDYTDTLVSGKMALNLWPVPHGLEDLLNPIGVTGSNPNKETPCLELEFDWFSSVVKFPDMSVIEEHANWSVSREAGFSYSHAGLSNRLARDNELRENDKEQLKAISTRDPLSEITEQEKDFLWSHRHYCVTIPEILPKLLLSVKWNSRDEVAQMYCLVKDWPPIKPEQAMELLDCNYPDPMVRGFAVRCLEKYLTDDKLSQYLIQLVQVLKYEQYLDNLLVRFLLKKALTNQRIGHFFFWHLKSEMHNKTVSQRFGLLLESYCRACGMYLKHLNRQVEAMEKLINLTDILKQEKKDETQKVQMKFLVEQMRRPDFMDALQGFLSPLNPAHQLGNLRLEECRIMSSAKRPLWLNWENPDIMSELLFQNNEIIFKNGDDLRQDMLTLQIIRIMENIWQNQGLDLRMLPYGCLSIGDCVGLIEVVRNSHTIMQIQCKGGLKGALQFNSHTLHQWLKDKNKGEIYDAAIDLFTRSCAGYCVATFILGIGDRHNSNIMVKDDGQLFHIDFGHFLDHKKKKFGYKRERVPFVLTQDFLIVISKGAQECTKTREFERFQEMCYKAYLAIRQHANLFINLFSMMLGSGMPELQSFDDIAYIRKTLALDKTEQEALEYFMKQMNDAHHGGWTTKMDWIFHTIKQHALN
Sequence of PI3Kα (p110α/p85a) (P27986 whole entry partner, looked up): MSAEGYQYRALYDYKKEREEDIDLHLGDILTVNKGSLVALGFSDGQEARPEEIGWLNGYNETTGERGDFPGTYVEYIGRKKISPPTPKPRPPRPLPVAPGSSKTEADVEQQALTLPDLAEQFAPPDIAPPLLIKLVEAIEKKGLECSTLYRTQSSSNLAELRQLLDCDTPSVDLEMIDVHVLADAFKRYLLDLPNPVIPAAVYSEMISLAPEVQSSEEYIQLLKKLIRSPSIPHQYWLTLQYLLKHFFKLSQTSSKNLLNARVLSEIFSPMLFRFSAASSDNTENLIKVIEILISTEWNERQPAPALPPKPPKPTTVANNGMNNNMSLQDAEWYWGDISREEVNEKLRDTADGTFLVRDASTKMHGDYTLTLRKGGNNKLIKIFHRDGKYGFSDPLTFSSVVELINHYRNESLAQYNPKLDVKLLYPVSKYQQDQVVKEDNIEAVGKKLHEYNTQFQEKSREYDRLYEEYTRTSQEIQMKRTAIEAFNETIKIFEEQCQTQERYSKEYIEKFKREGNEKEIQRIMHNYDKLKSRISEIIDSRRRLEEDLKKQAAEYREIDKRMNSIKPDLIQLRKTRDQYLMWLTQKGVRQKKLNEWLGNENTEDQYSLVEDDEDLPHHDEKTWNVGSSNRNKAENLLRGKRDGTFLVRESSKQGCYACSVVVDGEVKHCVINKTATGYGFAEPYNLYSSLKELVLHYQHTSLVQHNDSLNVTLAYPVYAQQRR
Description: Assay c): PI3K Biochemical Potency
(§1) 2.5 μl of kinase solution was added to each well of the 384-well assay plate, which contains 2.5 μl of compounds with serially diluted concentration. 2× substrate solution was prepared with PIP2 substrate and ATP in 1× kinase reaction buffer at 2-fold of the final concentration of each reagent in the assay. 5 μl of substrate solution was added to each well of the assay plate to start reaction. The assay plate was incubated at room temperature for 1 hour. 5 μl reaction mix was transferred to a new 384 well plate. 5 μl of ADP-Glo reagent (Promega, Cat. No. v9102/3) was added to each well of the new assay plate to stop the reaction. The plate was shaken slowly and equilibrated for 40 minutes. 10 μl kinase detection reagents were added to each well, which was equilibrated for 60 minutes before read on a plate reader (Envision) for luminescence.

PIK3Cδ = PIK3Cδ (Homo sapiens (Human), UniProt O00329); experiment: PI3K biochemical potency assay (Assay c), PIK3Cδ
Sequence of PIK3Cδ (O00329 whole entry, looked up): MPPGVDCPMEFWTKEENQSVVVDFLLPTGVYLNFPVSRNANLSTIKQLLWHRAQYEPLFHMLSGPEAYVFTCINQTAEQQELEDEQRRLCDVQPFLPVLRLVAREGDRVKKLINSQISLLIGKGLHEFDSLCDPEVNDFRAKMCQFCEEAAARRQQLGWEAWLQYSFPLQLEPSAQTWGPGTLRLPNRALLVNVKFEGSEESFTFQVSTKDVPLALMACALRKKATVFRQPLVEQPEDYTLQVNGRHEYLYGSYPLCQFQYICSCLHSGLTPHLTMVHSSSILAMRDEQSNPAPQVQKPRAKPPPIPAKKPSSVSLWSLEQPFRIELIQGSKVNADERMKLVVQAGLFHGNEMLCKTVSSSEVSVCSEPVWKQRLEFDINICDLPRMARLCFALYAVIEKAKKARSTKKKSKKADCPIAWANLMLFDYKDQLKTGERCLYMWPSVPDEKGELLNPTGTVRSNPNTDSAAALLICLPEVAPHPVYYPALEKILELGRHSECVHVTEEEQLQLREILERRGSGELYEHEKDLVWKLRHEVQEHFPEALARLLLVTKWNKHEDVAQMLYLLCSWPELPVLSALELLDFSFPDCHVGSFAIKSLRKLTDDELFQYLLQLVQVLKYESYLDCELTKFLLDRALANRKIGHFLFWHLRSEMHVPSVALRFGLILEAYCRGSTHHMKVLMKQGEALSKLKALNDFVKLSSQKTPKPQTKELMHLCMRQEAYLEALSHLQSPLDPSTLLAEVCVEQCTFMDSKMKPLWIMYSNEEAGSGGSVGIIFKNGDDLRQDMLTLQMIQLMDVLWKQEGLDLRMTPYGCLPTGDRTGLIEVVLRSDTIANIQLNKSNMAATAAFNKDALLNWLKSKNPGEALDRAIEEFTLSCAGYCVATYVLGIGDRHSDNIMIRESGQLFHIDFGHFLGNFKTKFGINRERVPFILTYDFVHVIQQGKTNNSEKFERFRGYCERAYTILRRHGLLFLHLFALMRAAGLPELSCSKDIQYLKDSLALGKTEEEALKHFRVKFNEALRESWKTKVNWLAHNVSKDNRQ
Sequence of PIK3Cδ (P27986 whole entry partner, looked up): as the sequence (P27986 whole entry partner, looked up) above
Description: Assay c): PI3K Biochemical Potency
as §1

PIK3Cβ (p110β) = PIK3Cβ (p110β) (Homo sapiens (Human), UniProt P42338); experiment: PI3K biochemical potency assay (Assay c), PIK3Cβ
Sequence of PIK3Cβ (p110β) (P42338 whole entry, looked up): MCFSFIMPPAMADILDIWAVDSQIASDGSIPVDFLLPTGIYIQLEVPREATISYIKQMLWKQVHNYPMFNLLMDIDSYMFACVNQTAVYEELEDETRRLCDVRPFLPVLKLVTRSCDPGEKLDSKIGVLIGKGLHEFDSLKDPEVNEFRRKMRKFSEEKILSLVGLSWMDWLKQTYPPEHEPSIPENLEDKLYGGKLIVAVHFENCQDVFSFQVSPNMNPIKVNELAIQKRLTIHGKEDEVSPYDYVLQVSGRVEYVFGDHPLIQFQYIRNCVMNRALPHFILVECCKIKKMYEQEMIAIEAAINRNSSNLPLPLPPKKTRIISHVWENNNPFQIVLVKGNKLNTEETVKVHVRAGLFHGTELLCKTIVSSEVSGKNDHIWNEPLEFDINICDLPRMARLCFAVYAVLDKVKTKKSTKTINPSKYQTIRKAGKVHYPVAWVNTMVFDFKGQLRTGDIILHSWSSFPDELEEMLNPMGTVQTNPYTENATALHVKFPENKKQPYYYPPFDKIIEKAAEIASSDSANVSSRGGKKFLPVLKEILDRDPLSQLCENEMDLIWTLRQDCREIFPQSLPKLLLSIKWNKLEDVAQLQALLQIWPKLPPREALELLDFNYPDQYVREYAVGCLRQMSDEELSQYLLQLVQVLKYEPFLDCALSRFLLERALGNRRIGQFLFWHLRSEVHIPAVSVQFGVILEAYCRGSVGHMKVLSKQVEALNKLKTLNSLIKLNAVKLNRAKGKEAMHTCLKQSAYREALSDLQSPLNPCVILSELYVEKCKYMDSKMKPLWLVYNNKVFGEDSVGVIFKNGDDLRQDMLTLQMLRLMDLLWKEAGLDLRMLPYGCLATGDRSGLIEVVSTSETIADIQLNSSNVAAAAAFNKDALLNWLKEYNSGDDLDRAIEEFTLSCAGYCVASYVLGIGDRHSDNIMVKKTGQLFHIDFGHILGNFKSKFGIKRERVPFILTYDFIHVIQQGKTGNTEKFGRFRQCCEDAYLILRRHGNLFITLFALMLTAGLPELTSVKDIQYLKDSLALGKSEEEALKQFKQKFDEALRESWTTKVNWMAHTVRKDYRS
Sequence of PIK3Cβ (p110β) (P27986 whole entry partner, looked up): as the sequence (P27986 whole entry partner, looked up) above
Description: Assay c): PI3K Biochemical Potency
as §1

PIK3Cγ (pp110γ) = PIK3Cγ (pp110γ) (Homo sapiens (Human), UniProt P48736); experiment: PI3K biochemical potency assay (Assay c), PIK3Cγ
Sequence of PIK3Cγ (pp110γ) (P48736 whole entry): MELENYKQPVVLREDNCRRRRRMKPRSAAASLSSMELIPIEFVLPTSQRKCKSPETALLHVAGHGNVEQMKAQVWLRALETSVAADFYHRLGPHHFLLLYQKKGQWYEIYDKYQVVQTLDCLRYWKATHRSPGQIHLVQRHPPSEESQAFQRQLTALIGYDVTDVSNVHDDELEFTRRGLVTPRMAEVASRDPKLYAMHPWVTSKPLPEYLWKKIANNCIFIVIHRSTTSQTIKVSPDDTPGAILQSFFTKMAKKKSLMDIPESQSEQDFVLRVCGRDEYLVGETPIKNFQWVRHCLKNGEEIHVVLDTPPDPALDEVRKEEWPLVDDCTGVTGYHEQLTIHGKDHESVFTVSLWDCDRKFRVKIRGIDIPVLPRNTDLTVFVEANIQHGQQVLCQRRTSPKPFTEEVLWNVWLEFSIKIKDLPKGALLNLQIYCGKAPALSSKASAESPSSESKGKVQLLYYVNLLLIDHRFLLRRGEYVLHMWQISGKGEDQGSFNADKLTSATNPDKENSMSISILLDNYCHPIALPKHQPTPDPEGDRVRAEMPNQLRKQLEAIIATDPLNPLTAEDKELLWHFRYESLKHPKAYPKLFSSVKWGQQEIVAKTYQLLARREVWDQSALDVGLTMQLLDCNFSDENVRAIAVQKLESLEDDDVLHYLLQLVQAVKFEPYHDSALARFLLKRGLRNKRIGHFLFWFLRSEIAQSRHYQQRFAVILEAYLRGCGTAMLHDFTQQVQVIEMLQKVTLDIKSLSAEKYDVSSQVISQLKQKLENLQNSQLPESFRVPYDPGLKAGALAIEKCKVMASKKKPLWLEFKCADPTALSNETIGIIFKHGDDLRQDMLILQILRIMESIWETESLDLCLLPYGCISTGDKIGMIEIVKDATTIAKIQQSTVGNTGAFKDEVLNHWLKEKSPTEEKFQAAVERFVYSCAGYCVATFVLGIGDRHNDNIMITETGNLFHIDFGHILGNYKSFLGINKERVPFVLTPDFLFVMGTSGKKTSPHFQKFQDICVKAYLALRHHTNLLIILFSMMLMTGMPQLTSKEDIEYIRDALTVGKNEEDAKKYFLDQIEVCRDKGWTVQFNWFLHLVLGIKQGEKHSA
Description: Assay c): PI3K Biochemical Potency
as §1

DNA-PK = DNA-PK (Homo sapiens (Human), UniProt P78527); experiment: DNA-PK biochemical assay (Assay e)
Description: Assay e): DNA-PK Biochemical Assay
The final concentration: Substrate 0.2 ug/ml and ATP 20 uM. […] The plate was equilibrated for 2 hr at room temperature.

FaDu xenograft = FaDu xenograft model, radiation combination (Assay i); assay type: in vivo, mouse; details: for tumor response in FaDu xenograft efficacy study: oral compound in combination with IR (2 Gy per day, 5 days per cycle); for Inhibition (% TGI) Combo: combo with IR
Description: Assay i): FaDu Xenograft Model
Cell culture: FaDu tumor cells were cultured in an EMEM medium containing inactivated 10% fetal bovine serum, 100 U/ml penicillin and 100 μg/ml streptomycin in a 37° C., 5% CO2 incubator.
Inoculation and grouping: Xenografts were established by implantation of 100 μl of Fadu tumor cell suspension (5×10^6 cells/mouse) subcutaneously into the right flank of female immune-compromised BALB/c nude mice at least 6 weeks of age. Tumours were measured in two dimensions with calipers and the tumour volume was calculated using the following formula: tumor volume=(length×width^2)×0.5. When the average tumor volume reached 100 to 150 mm^3, tumour-bearing mice were randomized into treatment groups.
Treatment and tumor assessment: Animals received 3 to 6 cycles of treatment with compounds combined with radiation therapy. Each cycle included 5 consecutive treatment day plus 2 days' rest. Ionizing radiation was administered using a fractionated schedule of 2 Gy per day administered over 5 consecutive days (total radiation dose=10 Gy/cycle). Compound was given orally 10 minutes before irradiation. The tumour volume and body weight of the mice were measured twice weekly.
Statistical Analysis: The One-Way ANOVA test was used for statistical analysis of tumor volume between groups, and p<0.05 was considered as a significant difference.

[3] = HT-29 cells, SN-38, read-out: SN-38 HT-29 cellular IC50

| Compound | IC50 (ATM) [µM] | IC50 (ATR) [µM] | IC50 (mTOR) [µM] | IC50 (PI3Kα (p110α/p85a)) [µM] | IC50 (PIK3Cδ) [µM] | IC50 (PIK3Cβ (p110β)) [µM] | IC50 (PIK3Cγ (pp110γ)) [µM] | IC50 (DNA-PK) [µM] | IC50 (mTOR; read-out: mTor IC50) [µM] | IC50 (PI3Kα (p110α/p85a); read-out: PI3Kα IC50) [µM] | IC50 (PIK3Cδ; read-out: PI3Kδ IC50) [µM] | IC50 (PIK3Cβ (p110β); read-out: PI3Kβ IC50) [µM] | IC50 (PIK3Cγ (pp110γ); read-out: PI3Kγ IC50) [µM] | also measured |
| --- | --- | --- | --- | --- | --- | --- | --- | --- | --- | --- | --- | --- | --- | --- |
| CC(C)n1c(=O)n(C)c2nnc3ccc(-c4ccc([C@@H](C)OCCN5CCC6(CC6)C5)nc4)cc3c21 [Example 53, (R)-8-(6-(1-(2-(5-azaspiro[2.4]heptan-5-yl)ethoxy)ethyl)pyridin-3-yl)-1-isopropyl-3-methyl-1H-imidazo[4,5-c]cinnolin-2(3H)-one] | 0.0042 | > 10 | > 10 | > 10 | > 10 | > 10 | > 10 |  |  |  |  |  |  | IC50 [1]: 0.009 µM; IC50 [2, 3]: 0.011 µM |
| COC1CCN(CCO[C@H](C)c2ccc(-c3ccc4nnc5c(c4c3)n(C(C)C)c(=O)n5C)cn2)CC1 [Example 56, (R)-1-isopropyl-8-(6-(1-(2-(4-methoxypiperidin-1-yl)ethoxy)ethyl)pyridin-3-yl)-3-methyl-1H-imidazo[4,5-c]cinnolin-2(3H)-one] | 0.0032 | > 10 |  |  |  |  |  | > 10 | > 10 | > 10 | > 10 | > 10 | > 10 |  |
| CC(C)n1c(=O)n(C)c2nnc3ccc(-c4ccc([C@@H](C)OCCN5CCCC5)nc4)cc3c21 [Example 62, (R)-1-isopropyl-3-methyl-8-(6-(1-(2-(pyrrolidin-1-yl)ethoxy)ethyl)pyridin-3-yl)-1,3-dihydro-2H-imidazo[4,5-c]cinnolin-2-one] | 0.0078 | > 10 |  |  |  |  |  |  | > 10 |  |  |  |  | IC50 [2]: 0.021 µM; tumor response in FaDu xenograft efficacy study (FaDu xenograft): tumor xenograft regression was observed and tumors did not relapse until the end of the study; Inhibition (% TGI) Combo (FaDu xenograft; total IR 30 Gy (3 cycles), 45 mg/kg PO. BID): 98.7 ± 0.51 % TGI; Inhibition (% TGI) Combo (FaDu xenograft; total IR 60 Gy (6 cycles), 10 mg/kg PO. BID): 80.4 ± 2.20 % TGI; Inhibition (% TGI) Combo (FaDu xenograft; total IR 60 Gy (6 cycles), 30 mg/kg PO. BID): 93.6 ± 1.33 % TGI |
| CC(C)n1c(=O)n(C)c2nnc3ccc(-c4ccc([C@@H](C)OCCN5CC[C@@H](OC6CC6)C5)nc4)cc3c21 [Example 76, 8-(6-((R)-1-(2-((R)-3-cyclopropoxypyrrolidin-1-yl)ethoxy)ethyl)pyridin-3-yl)-1-isopropyl-3-methyl-1H-imidazo[4,5-c]cinnolin-2(3H)-one] |  | > 10 | > 10 | > 10 | > 10 | > 10 | > 10 | > 10 |  |  |  |  |  |  |
| CC(C)n1c(=O)n(C)c2nnc3ccc(-c4ccc([C@@H](C)OCCN5CC[C@@H](C)C5)nc4)cc3c21 [Example 77, 1-isopropyl-3-methyl-8-(6-((R)-1-(2-((R)-3-methylpyrrolidin-1-yl)ethoxy)ethyl)pyridin-3-yl)-1H-imidazo[4,5-c]cinnolin-2(3H)-one] | 0.0048 | > 10 |  |  |  |  |  | > 10 | > 10 | > 10 | > 10 | > 10 | > 10 |  |
| C[C@@H](OCCN1CCC2(CC2)C1)c1ccc(-c2ccc3nnc4c(c3c2)n(C2CCOCC2)c(=O)n4C)cn1 [Example 102, (R)-8-(6-(1-(2-(5-azaspiro[2.4]heptan-5-yl)ethoxy)ethyl)pyridin-3-yl)-3-methyl-1-(tetrahydro-2H-pyran-4-yl)-1H-imidazo[4,5-c]cinnolin-2(3H)-one] |  | > 10 | > 10 | > 10 | > 10 | > 10 | > 10 |  |  |  |  |  |  | tumor response in FaDu xenograft efficacy study (FaDu xenograft): tumor xenograft regression was observed and tumors did not relapse until the end of the study |
| CO[C@@H]1CCN(CCO[C@H](C)c2ccc(-c3ccc4nnc5c(c4c3)n(C3CCOCC3)c(=O)n5C)cn2)C1 [Example 112, 8-(6-((R)-1-(2-((R)-3-methoxypyrrolidin-1-yl)ethoxy)ethyl)pyridin-3-yl)-3-methyl-1-(tetrahydro-2H-pyran-4-yl)-1H-imidazo[4,5-c]cinnolin-2(3H)-one] | 0.0078 | > 10 |  |  |  |  |  |  | > 10 |  |  |  |  | IC50 [1]: 0.02 µM; IC50 [2]: 0.018 µM; Inhibition (% TGI) Combo (FaDu xenograft; total IR 40 Gy (4 cycles), 30 mg/kg PO. BID): 77.3 ± 1.67 % TGI; Inhibition (% TGI) Combo (FaDu xenograft; total IR 40 Gy (4 cycles), 60 mg/kg PO. BID): 79.6 ± 4.20 % TGI; Inhibition (% TGI) Combo (FaDu xenograft; total IR 40 Gy (4 cycles), 100 mg/kg PO. BID): 82.9 ± 1.77 % TGI |
| CO[C@H]1C[C@H](n2c(=O)n(C)c3nnc4ccc(-c5ccc([C@@H](C)OCCN6CCCC6)nc5)cc4c32)C1 [Example 162, 1-(trans-3-methoxycyclobutyl)-3-methyl-8-(6-((R)-1-(2-(pyrrolidin-1-yl)ethoxy)ethyl)pyridin-3-yl)-1,3-dihydro-2H-imidazo[4,5-c]cinnolin-2-one] | 0.007 | > 10 |  |  |  |  |  | > 10 | > 10 | > 10 | > 10 | > 10 | > 10 | IC50 [2, 3]: 0.0055 µM |
| CC(C)n1c(=O)n(C)c2nnc3ccc(-c4ccc([C@H](OCCN5CCCC5)C(F)(F)F)nc4)cc3c21 [Example 184, (S)-1-isopropyl-3-methyl-8-(6-(2,2,2-trifluoro-1-(2-(pyrrolidin-1-yl)ethoxy)ethyl)pyridin-3-yl)-1,3-dihydro-2H-imidazo[4,5-c]cinnolin-2-one] | 0.0028 | > 10 |  |  |  |  |  | > 10 | > 10 | > 10 | > 10 | > 10 | > 10 |  |
| CC(C)n1c(=O)n(C)c2nnc3ccc(-c4ccc([C@@H](OCCN5CCCC5)C(F)(F)F)nc4)cc3c21 [Example 185, (R)-1-isopropyl-3-methyl-8-(6-(2,2,2-trifluoro-1-(2-(pyrrolidin-1-yl)ethoxy)ethyl)pyridin-3-yl)-1,3-dihydro-2H-imidazo[4,5-c]cinnolin-2-one] | 0.292 | > 10 |  |  |  |  |  | > 10 | > 10 | > 10 | > 10 | > 10 | > 10 |  |
